In patent publication US12474342B2, “Methods for treating cancer and the use of biomarkers as a predictor of clinical sensitivity to therapies” (CELGENE CORPORATION, priority 2016, dated 2025):
Each block holds one compound with its values, some of them ahead of it.

What was measured:
GSPT1 [1] = target: T1, GSPT1 (Homo sapiens, UniProt P15170+Q96SW2); experiment: GSPT1 degradation in NB4 cell line; assay type: cell-based; set-up: endogenous in cells
IKZF1 = IKZF1 (Homo sapiens, UniProt Q13422+Q96SW2)
GSPT1 [2] = target: T1, GSPT1; experiment: GSPT1 protein reduction, western analysis, normal PBMCs; conditions: PBMC, 1 nM to 1000 nM, 20 hours
Experimental: PBMC were treated with 1 nM, 10 nM, 100 nM, or 1000 nM of Compound D or Compound E for 20 hours.

GSPT1 [3] = target: T1, GSPT1; experiment: GSPT1 protein reduction, western analysis, KG-1; assay type: cell-based; set-up: reduction in GSPT1 protein level was evaluated in human normal PBMCs; endogenous in cells; host or cells: primary PBMCs from normal donors (ID 4328, 4379) and AML patients (ID 11SH, 09P6); conditions: KG1, 200 nM, 8 or 12 hours
Experimental: (§1) Cells were treated with DMSO alone, 200 nM Compound D, or 200 nM Compound E. After 8 or 12 hours, the expression levels of various cellular components along UPR or apoptosis pathways were measured. […] Reduction of BIP indicates UPR.
(§2) To further investigate the timeline of cellular events upon Compound D treatment, KG1 cells were treated with DMSO alone or 200 nM Compound D. At 2, 4, 6, 8, 10, or 12 hours, the expression levels of various cellular components along ATF4 or apoptosis pathways were measured.
In two sensitive AML cell lines, KG-1 and HL-60, both a concentration-dependent decrease in GSPT1 protein and an increase in RNA expression of ATF3, CHOP, and SRSF3 and SRSF6 NMD transcripts at the 8-hour time point were compared to caspase 3/7 activation (apoptosis) at the 24-hour (FIG. 30A [KG-1]; FIG. 30C [HL-60]) and 48-hour (FIG. 30B [KG-1]; FIG. 30D [HL-60]) time points.
The reduction in the level of GSPT1 protein was concentration-dependent over the range of 3 to 1000 nM in eight of the nine AML cell lines and over the range of 300 to 1000 nM in one relatively insensitive AML cell line. The time course of the reduction in GSPT1 by Compound D also was studied for up to 48 hours. The progressive degradation of GSPT1 over the course of 1 to 20 hours was evident in the presence of all concentrations of Compound D studied from 3 to 300 nM in HNT-34, HL-60, and ML-2 cells, with little GSPT1 remaining by 20 hours at 100 or 300 nM Compound D in HNT-34 or HL-60 cells (FIG. 34 and FIG. 35C). Time-dependent reduction in GSPT1 was also observed in KG-1 and OCI-AML2 cells at 3 to 1000 nM Compound D, with little GSPT1 remaining in KG-1 cells at 100 to 300 nM at 24 hours or in OCI-AML2 cells at 300 and 1000 nM at 24 hours (FIG. 35D). Loss of GSPT1 occurred more slowly in Kasumi-1, AML-193, and F36-P cells.
Compound D-mediated GSPT1 reduction at 8 hours was compared to induction of caspase 3/7 activation (apoptosis) at 12, 24, and 48 hour time points in these nine AML cell lines. […] A positive association (r^2=0.50; R=0.71; p value=4.86E-002) was observed between the level of GSPT1 reduction and apoptosis induction in the AML cell panel (FIG. 36), with >90% GSPT1 reduction correlating with induction of apoptosis.

[4] = test system: ATF3, DDIT3, cleaved Caspases, cleaved PARP; experiment: UPR and apoptosis pathway components in KG1 cells; assay type: cell-based, human; conditions: KG1, 200 nM, 8 or 12 hours
Experimental: Cells were treated with DMSO alone or 200 nM Compound D. After 2, 4, or 6 hours, the expression levels of various cellular components along UPR or apoptosis pathways were measured. […] Reduction of BIP indicates UPR.
as §1, §2

MOLM-13 cells = experiment: Anti-proliferation CTG assay, MOLM-13; assay type: cell-based, human; conditions: 48 hours
Experimental: (§3) A plethora of AML cell lines were treated with serial dilutions of Compound D. IC50 value of the anti-proliferation effect of Compound D (as determined in 72-hour CTG assays) in each cell line is summarized in Table 1.
(§4) The effect of overexpression of GSPT1 on the anti-proliferative effect of Compound D and Compound E was determined in human histiocytic lymphoma cell line U937 and human leukemia cell line MOLM13. Treatment compounds (e.g., Compound D or Compound E) were titrated from 0.001 μM to 10 μM. Cell proliferation was measured by CellTiter-Glo cell viability assay at 48 hours after treatment. […] However, when exogenous GSPT1 was overproduced via the EF1α promoter, as shown in FIGS. 5A-5D, the anti-proliferative effect of Compound D and Compound E reduced.

KG-1 cells = experiment: Anti-proliferation CTG assay, KG-1; assay type: cell-based, human; conditions: KG1 parental or control shRNA cells, 0.0001 μM to 1 μM, two days
Experimental: The effect of depletion of GSPT1 on the anti-proliferative effect of compound Compound D and Compound E was also determined in human acute myelogenous leukemia cell lines AML and KG1. […]

OCI-AML3 cells = experiment: Anti-proliferation CTG assay, OCI-AML3; assay type: cell-based, human; conditions: AML3 parental or control shRNA cells, 0.0001 μM to 1 μM, two days
Experimental: as §3
The effect of depletion of GSPT1 on the anti-proliferative effect of compound Compound D and Compound E was also determined in human acute myelogenous leukemia cell lines AML and KG1. Cells were infected with lentiviral vectors expressing control shRNA, shGSPT1-1 or shGSPT1-3 for 7 days and then treated with DMSO, Compound D or Compound E in a titration from 0.0001 μM to 1 μM. Two days after treatment, cell proliferation was measured by CellTiter-Glo cell viability. […] Both shGSPT1-1 and shGSPT1-3 reduced the expression of GSPT1, eRF1, and slightly of CRBN.

U-937 cells = experiment: Anti-proliferation CTG assay, U-937; assay type: cell-based, human; conditions: 48 hours
Experimental: as §3, §4

p-eIF2α = p-eIF2α immunoblot, OCI-AML2; assay type: cell-based, human; conditions: 300 μg/ml G418 or 200 nM Compound D
Experimental: (§5) It is known that amino acid starvation causes GCN2 activation, which phosphorylates eIF2α. Because GSPT1 mediates normal translation termination, it is hypothesized that depletion of GSPT1 by Compound D may cause readthrough of stop codons. Whether the translational readthrough induced by Compound D contributes to the increased levels of p-eIF2α was investigated. OCI-AML2 cells stably expressing the Fluc/Nluc-G36A readthrough reporter were treated with 300 μg/ml G418 or 200 nM Compound D for 2, 4, 6, 8, 10, 12, or 16 hours. The levels of p-eIF2α were measured by immunoblot analysis. AML2 readthrough assay was conducted to measure the readthrough reporter.

[5] = test system: translational readthrough; experiment: AML2 readthrough assay (Fluc/Nluc-G36A reporter), OCI-AML2; assay type: cell-based, human; conditions: 300 μg/ml G418 or 200 nM Compound D
Experimental: as §5

T1 sequence (P15170 1-637 isoform P15170-3): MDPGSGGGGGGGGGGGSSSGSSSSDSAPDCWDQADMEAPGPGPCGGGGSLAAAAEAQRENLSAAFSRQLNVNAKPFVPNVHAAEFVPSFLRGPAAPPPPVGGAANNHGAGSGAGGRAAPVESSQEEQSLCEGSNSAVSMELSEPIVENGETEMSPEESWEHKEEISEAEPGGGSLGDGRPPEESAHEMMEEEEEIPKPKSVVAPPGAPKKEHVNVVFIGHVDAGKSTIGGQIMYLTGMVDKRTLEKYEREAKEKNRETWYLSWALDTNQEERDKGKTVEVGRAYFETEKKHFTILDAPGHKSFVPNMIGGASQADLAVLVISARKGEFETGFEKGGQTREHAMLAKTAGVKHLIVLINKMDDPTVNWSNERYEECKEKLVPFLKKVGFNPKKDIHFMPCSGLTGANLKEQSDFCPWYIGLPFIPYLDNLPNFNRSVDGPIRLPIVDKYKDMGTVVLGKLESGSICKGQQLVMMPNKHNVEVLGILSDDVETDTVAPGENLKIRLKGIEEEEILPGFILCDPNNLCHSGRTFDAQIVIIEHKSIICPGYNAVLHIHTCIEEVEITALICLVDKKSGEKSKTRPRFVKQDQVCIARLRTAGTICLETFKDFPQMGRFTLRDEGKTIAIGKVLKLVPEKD
T1 sequence (Q96SW2 whole entry): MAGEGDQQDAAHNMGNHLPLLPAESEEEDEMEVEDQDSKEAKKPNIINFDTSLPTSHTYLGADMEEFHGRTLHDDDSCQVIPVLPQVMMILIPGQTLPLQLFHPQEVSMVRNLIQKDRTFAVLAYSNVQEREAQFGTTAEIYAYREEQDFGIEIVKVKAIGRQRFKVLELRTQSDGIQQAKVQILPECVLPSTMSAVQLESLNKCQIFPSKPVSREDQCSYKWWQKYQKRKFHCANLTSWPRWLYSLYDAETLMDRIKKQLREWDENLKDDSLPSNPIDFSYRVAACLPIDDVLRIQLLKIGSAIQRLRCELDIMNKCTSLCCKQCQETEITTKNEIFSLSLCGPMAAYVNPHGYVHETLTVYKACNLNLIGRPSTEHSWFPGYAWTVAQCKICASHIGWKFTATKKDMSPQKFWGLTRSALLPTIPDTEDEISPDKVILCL
T1 sequence (Q16531 whole entry partner): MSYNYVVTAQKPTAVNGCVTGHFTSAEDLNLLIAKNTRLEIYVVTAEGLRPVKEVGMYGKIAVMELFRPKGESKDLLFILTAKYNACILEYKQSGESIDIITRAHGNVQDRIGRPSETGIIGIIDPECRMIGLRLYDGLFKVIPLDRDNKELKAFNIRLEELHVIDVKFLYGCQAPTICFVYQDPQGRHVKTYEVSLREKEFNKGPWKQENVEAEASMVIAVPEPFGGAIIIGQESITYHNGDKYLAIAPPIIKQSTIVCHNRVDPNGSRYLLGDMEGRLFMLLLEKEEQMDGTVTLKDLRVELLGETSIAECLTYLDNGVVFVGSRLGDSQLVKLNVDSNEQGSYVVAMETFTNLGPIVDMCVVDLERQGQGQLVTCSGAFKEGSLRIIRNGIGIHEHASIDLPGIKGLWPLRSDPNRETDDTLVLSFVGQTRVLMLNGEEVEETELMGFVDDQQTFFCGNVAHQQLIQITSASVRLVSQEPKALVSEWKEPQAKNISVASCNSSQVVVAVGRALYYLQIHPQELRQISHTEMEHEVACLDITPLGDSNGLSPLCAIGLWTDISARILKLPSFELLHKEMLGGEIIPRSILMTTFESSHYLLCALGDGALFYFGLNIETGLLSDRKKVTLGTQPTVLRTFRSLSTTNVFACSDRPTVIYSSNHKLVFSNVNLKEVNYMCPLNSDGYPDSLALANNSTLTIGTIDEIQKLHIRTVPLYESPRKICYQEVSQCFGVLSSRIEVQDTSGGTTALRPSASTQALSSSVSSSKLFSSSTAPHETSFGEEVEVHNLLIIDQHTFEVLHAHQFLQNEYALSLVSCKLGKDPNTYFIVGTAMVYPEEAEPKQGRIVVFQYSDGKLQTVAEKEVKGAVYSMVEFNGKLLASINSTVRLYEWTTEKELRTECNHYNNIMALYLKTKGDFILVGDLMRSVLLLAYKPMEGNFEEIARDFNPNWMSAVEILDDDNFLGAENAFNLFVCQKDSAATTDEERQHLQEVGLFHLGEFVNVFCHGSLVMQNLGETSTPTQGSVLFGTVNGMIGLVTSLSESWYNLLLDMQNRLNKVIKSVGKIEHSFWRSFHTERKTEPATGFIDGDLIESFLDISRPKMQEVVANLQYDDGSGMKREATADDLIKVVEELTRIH
Chain of IKZF1 (Q13422 whole entry): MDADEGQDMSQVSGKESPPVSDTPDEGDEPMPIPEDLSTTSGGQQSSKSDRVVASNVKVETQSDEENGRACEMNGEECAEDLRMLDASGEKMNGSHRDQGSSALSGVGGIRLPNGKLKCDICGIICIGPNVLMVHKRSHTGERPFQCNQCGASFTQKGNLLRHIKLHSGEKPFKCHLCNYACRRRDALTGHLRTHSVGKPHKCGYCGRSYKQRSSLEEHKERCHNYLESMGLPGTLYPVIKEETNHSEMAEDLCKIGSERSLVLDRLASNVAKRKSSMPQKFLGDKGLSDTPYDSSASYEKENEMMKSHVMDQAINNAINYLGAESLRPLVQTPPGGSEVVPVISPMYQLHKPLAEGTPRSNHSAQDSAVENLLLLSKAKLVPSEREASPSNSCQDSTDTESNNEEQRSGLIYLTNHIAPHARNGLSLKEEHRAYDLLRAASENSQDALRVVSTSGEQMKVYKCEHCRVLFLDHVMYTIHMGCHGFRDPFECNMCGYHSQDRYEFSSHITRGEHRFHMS
Chain of IKZF1 (Q96SW2 whole entry): as the sequence (Q96SW2 whole entry) above
Chain of IKZF1 (Q16531 whole entry partner): as the sequence (Q16531 whole entry partner) above

effect on GSPT1 level (GSPT1 [1]): no significant effect
Structure (SMILES): Nc1cccc2c1C(=O)N(C1CCC(=O)NC1=O)C2=O (stereo not shown) [pomalidomide, reference compound]
effect on IKZF1 level (IKZF1): induced degradation of IKZF1 at much lower concentrations than Compound D

expression of GSPT1 (GSPT1 [2]): decreased the expression of GSPT1 | degradation of GSPT1 (GSPT1 [3]): induced degradation
Structure (SMILES): O=C1CCC(N2Cc3cc(CNC(=O)C(F)(F)c4ccc(F)cc4)ccc3C2=O)C(=O)N1 (stereo not shown) [Compound E, N-((2-(2,6-dioxopiperidin-3-yl)-1-oxoisoindolin-5-yl)methyl)-2,2-difluoro-2-(4-fluorophenyl)acetamide]
level of ATF3, DDIT3, cleaved Caspase-3, cleaved Caspase-8, and cleaved PARP [4]: increased the level | anti-proliferative effect (MOLM-13 cells; MOLM13 CRBN -/- cells): completely abolished | cell proliferation (CellTiter-Glo) (MOLM-13 cells; MOLM13 parental cells, 0.001 μM to 10 μM): inhibited cell proliferation | cell proliferation (CellTiter-Glo) (KG-1 cells): exhibited anti-proliferative effect, particularly at high concentration | cell proliferation (CellTiter-Glo) (OCI-AML3 cells): exhibited anti-proliferative effect, particularly at high concentration | anti-proliferative effect (U-937 cells; U937 CRBN -/- cells): completely abolished | cell proliferation (CellTiter-Glo) (U-937 cells; U937 parental cells, 0.001 μM to 10 μM): inhibited cell proliferation

Structure (SMILES): CN[C@@H]1[C@@H](O)[C@@H](O[C@@H]2[C@@H](O)[C@H](O[C@H]3O[C@H]([C@@H](C)O)[C@@H](O)[C@H](O)[C@H]3N)[C@@H](N)C[C@H]2N)OC[C@]1(C)O [Compound G418, G418, reference compound]
levels of p-eIF2α (p-eIF2α): little effect | translational readthrough [5]: induced translational readthrough at a comparable level
